# Patent US20070027130A1, “Tricyclic 6-alkylidene-penem beta-lactamase inhibitors and beta-lactam antibiotic combination: a broad spectrum antibiotic” (priority 2005, published 2007)
# What was measured:
# Assay in all cases: MIC microbroth dilution
# Type in all cases: cell-based
# [1] = tested on: A. baumannii GC 7684 AmpC, AmpC; conditions: Acinetobacter baumannii, β-lactamase class C, MHBII, 35° C. 18 hr, read-out: Minimal Inhibitory Concentration
# In short: (§1)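 Antibiotics were serially diluted in Mueller-Hinton II broth following the NCCLS microdilution standard, inoculated, then held at 35 C in ambient air for 18-22 hours.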
# [2] = tested on: A. baumannii GC 7692 TEM-1, AmpC; conditions: Acinetobacter baumannii, 18 h, read-out: Minimal Inhibitory Concentration
# In short: as §1
# [3] = tested on: E. aerogenes GC 7036 TEM-24, Amp C inducable; conditions: Klebsiella aerogenes, β-lactamase class A (ESBL), MHBII, 35° C. 18 hr, read-out: Minimal Inhibitory Concentration
# In short: as §1
# [4] = tested on: E. aerogenes GC 7039 TEM-4, Amp C inducable; conditions: Klebsiella aerogenes, β-lactamase class A (ESBL), MHBII, 35° C. 18 hr, read-out: Minimal Inhibitory Concentration
# In short: as §1
# [5] = tested on: E. cloacae GC 7052 SHV-5, Amp C inducable; conditions: Enterobacter cloacae, β-lactamase class A (ESBL), MHBII, 35° C. 18 hr, read-out: Minimal Inhibitory Concentration
# In short: as §1
# [6] = tested on: E. coli GC 1695 (TEM-1 + TEM-10); conditions: Escherichia coli, β-lactamase class A, A (ESBL), MHBII, 35° C. 18 hr, read-out: Minimal Inhibitory Concentration
# In short: as §1
# E. coli GC 1807 OXA-7 = conditions: Escherichia coli, GC1807OXA7, β-lactamase class D, MHBII, 35° C. 18 hr, read-out: Minimal Inhibitory Concentration
# In short: as §1
# E. coli GC 2009 (TEM-10) = conditions: Escherichia coli, 18 h, read-out: Minimal Inhibitory Concentration
# In short: as §1
# [7] = tested on: E. coli GC 2015 (TEM-10 + SHV-1); conditions: Escherichia coli, β-lactamase class A, A (ESBL), MHBII, 35° C. 18 hr, read-out: Minimal Inhibitory Concentration
# In short: as §1
# [8] = tested on: E. coli GC 2017 (TEM-10 + pl 6.3; 8.1); conditions: Escherichia coli, β-lactamase class A (ESBL), MHBII, 35° C. 18 hr, read-out: Minimal Inhibitory Concentration
# In short: as §1
# E. coli GC 2400 (TEM-43) = conditions: Escherichia coli, β-lactamase class A (ESBL), MHBII, 35° C. 18 hr, read-out: Minimal Inhibitory Concentration
# In short: as §1
# [9] = tested on: K. pn GC 1507 (TEM-9 + SHV-1); conditions: Klebsiella pneumoniae, β-lactamase class A, A (ESBL), MHBII, 35° C. 18 hr, read-out: Minimal Inhibitory Concentration
# In short: as §1
# K. pn GC 1510 (TEM-10) = conditions: Klebsiella pneumoniae, β-lactamase class A (ESBL), MHBII, 35° C. 18 hr, read-out: Minimal Inhibitory Concentration
# In short: as §1
# K. pn GC 1830 (SHV-2) = conditions: Klebsiella pneumoniae, β-lactamase class A (ESBL), MHBII, 35° C. 18 hr, read-out: Minimal Inhibitory Concentration
# In short: as §1
# [10] = tested on: K. pn GC 6494 (TEM-1 + SHV-5); conditions: Klebsiella pneumoniae, β-lactamase class A, A (ESBL), MHBII, 35° C. 18 hr, read-out: Minimal Inhibitory Concentration
# In short: as §1
# [11] = tested on: K. pneumoniae GC 2826 Act 1 + 3 additional; conditions: Klebsiella pneumoniae, β-lactamase class A, A (ESBL), C, MHBII, 35° C. 18 hr, read-out: Minimal Inhibitory Concentration
# In short: as §1
# [12] = tested on: K. pneumoniae GC 7632 TEM-1 KPC-2, SHV-7, SHV-12; conditions: Klebsiella pneumoniae, β-lactamase class A, A (Cb'ase), A (ESBL), MHBII, 35° C. 18 hr, read-out: Minimal Inhibitory Concentration
# In short: as §1
# [13] = tested on: K. pneumoniae GC 7635 SHV-1, KPC2; conditions: Klebsiella pneumoniae, β-lactamase class A, A (Cb'ase), MHBII, 35° C. 18 hr, read-out: Minimal Inhibitory Concentration
# In short: as §1
# [14] = tested on: K. pneumoniae GC 7823 Fox 5; conditions: Klebsiella pneumoniae, GC7823FOX5, β-lactamase class C, MHBII, 35° C. 18 hr, read-out: Minimal Inhibitory Concentration
# In short: as §1
# [15] = tested on: K. pneumoniae GC 7824 Fox 5; conditions: Klebsiella pneumoniae, GC7824FOX5, β-lactamase class C, MHBII, 35° C. 18 hr, read-out: Minimal Inhibitory Concentration
# In short: as §1
# [16] = tested on: M. morganii GC 1617 TEM-10 + inducible AmpC; conditions: Morganella morganii, β-lactamase class A (ESBL), C, MHBII, 35° C. 18 hr, read-out: Minimal Inhibitory Concentration
# In short: as §1
# [17] = tested on: P. aeruginosa PT 9236 PTZ-R; conditions: Pseudomonas aeruginosa, PT9236PTZR; P. aeruginosa PT 9236, piperacillin-tazobactam-resistant; MHBII, 35° C. 18 hr; read-out: Minimal Inhibitory Concentration
# In short: as §1
# [18] = tested on: S. marcescens GC 4132 (AmpC); conditions: Serratia marcescens, β-lactamase class C, MHBII, 35° C. 18 hr, read-out: Minimal Inhibitory Concentration
# In short: as §1
# [19] = tested on: S. marcescens GC 4145 Inducible AmpC; conditions: Serratia marcescens, β-lactamase class C, MHBII, 35° C. 18 hr, read-out: Minimal Inhibitory Concentration
# In short: as §1
compound,measurement,setting,value
CO/N=C(\C(=O)N[C@@H]1C(=O)N2C(C(=O)[O-])=C(C[N+]3(C)CCCC3)CS[C@H]12)c1csc(N)n1 [Cefepime],MIC,[1],16 µg/mL
same,MIC,[2],> 16 µg/mL
same,MIC,[3],2 µg/mL
same,MIC,[4],> 16 µg/mL
same,MIC,[5],8 µg/mL
same,MIC,[6],16 µg/mL
same,MIC,E. coli GC 1807 OXA-7,0.12 µg/mL
same,MIC,E. coli GC 2009 (TEM-10),> 16 µg/mL
same,MIC,[7],> 16 µg/mL
same,MIC,[8],16 µg/mL
same,MIC,E. coli GC 2400 (TEM-43),> 16 µg/mL
same,MIC,[9],8 µg/mL
same,MIC,K. pn GC 1510 (TEM-10),0.5 µg/mL
same,MIC,K. pn GC 1830 (SHV-2),2 µg/mL
same,MIC,[10],4 µg/mL
same,MIC,[11],8 µg/mL
same,MIC,[12],> 16 µg/mL
same,MIC,[13],> 16 µg/mL
same,MIC,[14],1 µg/mL
same,MIC,[15],2 µg/mL
same,MIC,[16],0.25 µg/mL
same,MIC,[17],> 16 µg/mL
same,MIC,[18],0.5 µg/mL
same,MIC,[19],1 µg/mL
